SMILES strings stand for the structures.

For the assay, the system named is KB cells (human tumour cell line ATCC CCL-17). In words: EGFR driven KB cell proliferation assay (Test b). As to conditions: geometric mean of n tests, EGF driven proliferation of KB cells. The class given is cell-based. The procedure:
b) EGFR Driven KB Cell Proliferation Assay
This assay measures the ability of a test compound to inhibit the proliferation of KB cells (human tumour cell line ATCC CCL-17).
KB cells were cultured in Dulbecco's modified Eagle's medium (DMEM) containing 10% foetal calf serum, 2 mM glutamine and 1% non-essential amino acids at 37° C. in a 7.5% CO2 air incubator. Cells were harvested from the stock flasks using Trypsin/ethylaminediaminetetraacetic acid (EDTA). Cell density was measured using a haemocytometer and viability was calculated using trypan blue solution before being seeded at a density of 1.25×10^3 cells per well of a 96 well plate in DMEM containing 2.5% charcoal stripped serum, 1 mM glutamine and 1% non-essential amino acids at 37° C. in 7.5% CO2 and allowed to settle for 4 hours.
Following adhesion to the plate, the cells are treated with or without EGF (final concentration of 1 ng/ml) and with or without compound at a range of concentrations in dimethylsulfoxide (DMSO) (0.1% final) before incubation for 4 days. Following the incubation period, cell numbers were determined by addition of 50 μl of 3-(4,5-Dimethylthiazol-2-yl)-2,5-diphenyltetrazolium bromide (MTT) (stock 5 mg/ml) for 2 hours. MTT solution was then tipped off, the plate gently tapped dry and the cells dissolved upon the addition of 100 μl of DMSO.
Absorbance of the solubilised cells was read at 540 nm using a Molecular Devices ThermoMax microplate reader. Inhibition of proliferation was expressed as an IC50 value. This was determined by calculation of the concentration of compound that was required to give 50% inhibition of EGF driven proliferation. The range of proliferation was calculated from the positive (vehicle plus EGF) and negative (vehicle minus EGF) control values. The IC50 value obtained from basal cell growth gives a measure of selectivity.

The compound `COc1cc2ncnc(Nc3cccc(Cl)c3F)c2cc1O[C@H]1CCN(C)[C@H](C(N)=O)C1` [Example 1, (2S,4S)-4-({4-[(3-chloro-2-fluorophenyl)amino]-7-methoxyquinazolin-6-yl}oxy)-1-methylpiperidine-2-carboxamide] returned an IC50 of 56 nM.

The compound `CNC(=O)[C@@H]1C[C@@H](Oc2cc3c(Nc4cccc(Cl)c4F)ncnc3cc2OC)CCN1C` [Example 2, (2S,4S)-4-({4-[(3-chloro-2-fluorophenyl)amino]-7-methoxyquinazolin-6-yl}oxy)-N,1-dimethylpiperidine-2-carboxamide] displayed an IC50 of 61 nM.

Take `CNC(=O)[C@H]1C[C@H](Oc2cc3c(Nc4cccc(Cl)c4F)ncnc3cc2OC)CCN1C` [Example 3, (2R,4R)-4-({4-[(3-chloro-2-fluorophenyl)amino]-7-methoxyquinazolin-6-yl}oxy)-N,1-dimethylpiperidine-2-carboxamide]: inhibition was half-maximal at 23 nM (IC50).

What is called IC50 is the concentration at which inhibition is half-maximal.

(Values after US8735410B2, “Quinazoline derivatives as tyrosine kinase inhibitors” (AstraZeneca AB, priority 2005, dated 2014).)
